Patent publication US11617718B2, “Process for producing a nano-CBD microemulsion system” (priority 2019, dated 2023)
Where two headings read alike, the source gives them in different places.

Assays:
[1] = cited from earlier work
[2] = Water solubility / water-dispersing ability; assay type: physicochemical; settings: FIG. 1, dispersed in water
Experimental: Producing a carrier: 70 ml of PEG was heated to 70° C. 70 ml of the carrier was added to the above-prepared dispersal phase, this dispersal phase continued to be heating to 100° C. and stirred at a speed of 600 rpm.

C=C(C)[C@@H]1CCC(C)=C[C@H]1c1c(O)cc(CCCCC)cc1O [CBD, Cannabidiol]
half-life ([1]; in vivo): about 9 hours
bioavailability ([1]; used nasally (inhalantly)): about 31%
bioavailability ([1]; used orally): 13-19%
water-dispersing ability [2]: insoluble in water
